Structures can show the parent of a compound that is named as a salt. Where two headings read alike, the source gives them in different places.
What was measured:
[1] = tested on: PBMC (peripheral blood mononuclear cells from healthy donors); assay: CellTiter-Blue cell viability assay; assay type: cell-based; conditions: read-out: IC50 healthy PBMC (cell viability)
Procedure: (§1) Method for Measurement of Cell Viability
(§2) The CellTiter-Blue® Cell Viability Assay (Promega) provides a homogeneous, fluorometric method for estimating the number of viable cells present in multi-well plates. The assay uses the indicator dye resazurin to measure the metabolic capacity of cells. Viable cells retain the ability to reduce resazurin into resorufin, which is highly fluorescent.
(§3) Stock solutions (10 mM in DMSO) of compounds were serially diluted 1:2 in 11 concentrations. 50 nL/well (10 mM compound stock in DMSO) was acoustically dispensed in 384-well assay plates with an acoustic dispenser (EDC Biosystems ATS-100AV). Final starting concentration in the assay was 20 μM (0.2% DMSO) for test compounds. […] After 72 hours, Celltiter Blue reagent (Promega #G8081) was diluted 1:10 with PBS and then added to wells (5 μL/well). The plates were incubated for 2 hours following addition of reagent. […] Results were calculated as % cell viability compared to background (cells treated with 0.2% DMSO).

[2] = tested on: U266 (multiple myelom); assay: CellTiter-Blue cell viability assay; assay type: cell-based; conditions: Homo sapiens, read-out: IC50 U266 (cell viability)
Procedure: as §1, §2, §3

[3] = tested on: AMO-1 (plasmacytom); assay: CellTiter-Blue cell viability assay; assay type: cell-based; conditions: Homo sapiens, read-out: IC50 AMO-1 (cell viability)
Procedure: as §1, §2, §3

[4] = tested on: PaCa2 (pancreatic); assay: CellTiter-Blue cell viability assay; assay type: cell-based; conditions: read-out: IC50 PaCa2 (cell viability)
Procedure: as §1, §2, §3

[5] = target: HDAC6 (Homo sapiens (Human), UniProt Q9UBN7); assay: HDAC in vitro enzymatic assay (fluorescence); assay type: biochemical; conditions: top concentration 2 μM
Procedure: Biological Tests Method for Measurement of Enzymatic Activity of HDACs Materials & Methods
All Examples were tested in HDAC1, 2, 3, 6 and 8 in vitro enzymatic assays. The assay principle is well known (Hauser et al. 2009, Bradner et al. 2010) and all necessary reagents like enzymes, substrates, developer and reference compounds are commercially available (see e.g. BPS Biosciences http://www.bpsbioscience.com/). A series of dilutions of the compounds were prepared with a top concentration of 200 μM (2 μM for HDAC6). The enzymatic reactions were conducted in a mixture containing assay buffer, bovine serum albumin, HDAC substrate, and a test compound. After enzymatic reaction, developer was added and after an additional incubation time, fluorescence intensity was measured at an excitation wavelength of 360 nm and an emission wavelength of 460 nm. A selection of the Examples were tested in a full HDAC panel containing HDAC1, 2, 3, 4, 5, 6, 7, 8, 9, 10 and 11 in vitro enzymatic assays. The tests were performed as above except that a series of dilutions of the compounds were prepared with a top concentration of 10 μM for all HDACs.

[6] = target: HDAC2 (Homo sapiens (Human), UniProt Q92769); assay: HDAC in vitro enzymatic assay (fluorescence); conditions: read-out: IC50 HDAC2; selectivity profiling; top concentration 200 μM
[7] = target: HDAC8 (Homo sapiens (Human), UniProt Q9BY41); assay: HDAC in vitro enzymatic assay (fluorescence); conditions: read-out: IC50 HDAC8; selectivity profiling; top concentration 200 μM
[8] = target: HDAC1 (Homo sapiens (Human), UniProt Q13547); assay: HDAC in vitro enzymatic assay (fluorescence); conditions: read-out: IC50 HDAC1; selectivity profiling; top concentration 200 μM
[9] = target: HDAC3 (Homo sapiens (Human), UniProt O15379); assay: HDAC in vitro enzymatic assay (fluorescence); conditions: read-out: IC50 HDAC3; selectivity profiling; top concentration 200 μM
[10] = healthy PBMC, 72 hours of treatment
[11] = U-266, U266 cells, 72 hours of treatment
[12] = AMO1, AMO-1 cells, 72 hours of treatment
[13] = PaCa-2, PaCa2 cells, 72 hours of treatment
[14] = read-out: IC50 values for inhibition of HDAC6
[15] = selectivity profiling, read-out: IC50 HDAC6

Sequence of HDAC2 (Q92769 whole entry): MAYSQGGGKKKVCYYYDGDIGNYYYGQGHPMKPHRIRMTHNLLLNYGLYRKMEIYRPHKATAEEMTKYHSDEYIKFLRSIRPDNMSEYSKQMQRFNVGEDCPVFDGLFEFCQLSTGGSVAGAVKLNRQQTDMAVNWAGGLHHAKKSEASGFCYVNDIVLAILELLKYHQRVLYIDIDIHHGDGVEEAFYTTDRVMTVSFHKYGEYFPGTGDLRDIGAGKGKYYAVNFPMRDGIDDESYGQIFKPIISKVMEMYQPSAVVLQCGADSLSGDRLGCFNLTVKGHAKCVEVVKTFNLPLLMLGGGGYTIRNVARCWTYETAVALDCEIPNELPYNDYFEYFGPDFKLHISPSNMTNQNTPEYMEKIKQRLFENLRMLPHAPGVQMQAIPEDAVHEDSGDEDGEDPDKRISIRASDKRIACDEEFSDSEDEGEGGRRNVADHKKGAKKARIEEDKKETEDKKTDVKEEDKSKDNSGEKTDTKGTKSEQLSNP
Sequence of HDAC8 (Q9BY41 whole entry): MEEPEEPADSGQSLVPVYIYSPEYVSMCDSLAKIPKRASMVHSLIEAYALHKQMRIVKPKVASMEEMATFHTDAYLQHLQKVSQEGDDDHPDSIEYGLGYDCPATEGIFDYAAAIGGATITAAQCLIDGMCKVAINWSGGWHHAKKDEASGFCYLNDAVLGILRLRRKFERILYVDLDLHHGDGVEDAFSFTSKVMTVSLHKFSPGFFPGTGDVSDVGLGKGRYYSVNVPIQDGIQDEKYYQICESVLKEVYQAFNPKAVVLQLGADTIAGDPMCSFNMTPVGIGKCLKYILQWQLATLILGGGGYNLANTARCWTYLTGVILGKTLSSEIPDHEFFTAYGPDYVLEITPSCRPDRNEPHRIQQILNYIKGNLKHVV
Sequence of HDAC3 (O15379 whole entry): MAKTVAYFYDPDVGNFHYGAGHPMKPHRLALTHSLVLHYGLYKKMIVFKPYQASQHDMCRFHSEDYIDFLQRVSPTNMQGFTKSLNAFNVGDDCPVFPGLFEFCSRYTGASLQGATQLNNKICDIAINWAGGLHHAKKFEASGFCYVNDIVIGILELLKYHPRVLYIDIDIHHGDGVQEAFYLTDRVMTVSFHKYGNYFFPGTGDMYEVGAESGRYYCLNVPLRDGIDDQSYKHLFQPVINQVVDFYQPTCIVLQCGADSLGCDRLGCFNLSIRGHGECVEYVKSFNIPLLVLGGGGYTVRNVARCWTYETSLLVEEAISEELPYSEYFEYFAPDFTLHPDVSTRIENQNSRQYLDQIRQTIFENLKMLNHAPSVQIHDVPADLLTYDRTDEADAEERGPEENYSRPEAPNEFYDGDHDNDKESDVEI
Sequence of HDAC3 (Q9Y618 395-489 partner): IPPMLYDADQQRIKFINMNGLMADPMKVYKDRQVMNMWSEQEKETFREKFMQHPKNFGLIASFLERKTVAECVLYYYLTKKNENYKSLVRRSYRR
Sequence of HDAC1 (Q13547 whole entry): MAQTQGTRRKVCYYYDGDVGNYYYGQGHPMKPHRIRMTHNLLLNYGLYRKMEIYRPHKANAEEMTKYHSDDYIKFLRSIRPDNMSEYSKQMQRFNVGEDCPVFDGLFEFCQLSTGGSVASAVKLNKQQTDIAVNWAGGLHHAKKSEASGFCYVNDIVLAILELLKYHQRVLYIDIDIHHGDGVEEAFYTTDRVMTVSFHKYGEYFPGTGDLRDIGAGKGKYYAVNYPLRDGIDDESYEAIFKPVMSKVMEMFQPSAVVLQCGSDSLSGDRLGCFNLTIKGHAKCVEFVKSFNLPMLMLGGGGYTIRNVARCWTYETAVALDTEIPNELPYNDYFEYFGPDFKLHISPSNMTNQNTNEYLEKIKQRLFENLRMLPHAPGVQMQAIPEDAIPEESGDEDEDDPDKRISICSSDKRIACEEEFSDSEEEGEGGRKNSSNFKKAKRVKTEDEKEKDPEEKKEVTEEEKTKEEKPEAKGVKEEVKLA

SMILES	IC50 [1, 10]	IC50 [2, 11]	IC50 [3, 12]	IC50 [4, 13]	IC50 [5, 14]	IC50 [6]	IC50 [7]	IC50 ([1]; PBMC, 72 h)	IC50 ([2]; U-266, 72 h)	IC50 ([3]; AMO1, 72 h)	IC50 ([4]; PaCa-2, 72 h)	IC50 [8]	IC50 [5, 15]	IC50 [9]
O=C(NO)c1ccc2nc(-c3ccc(Br)cc3)[nH]c2c1 [Example 3, 2-(4-bromophenyl)-N-hydroxy-1H-benzimidazole-6-carboxamide]	> 20000 nM	2900 nM	6300 nM	6000 nM	45 nM	–	–	–	–	–	–	–	–	–
O=C(NO)c1ccc2nc(-c3ccc(-c4ccccc4)cc3)[nH]c2c1 [Example 6, 2-biphenyl-4-yl-N-hydroxy-1H-benzimidazole-6-carboxamide]	–	–	–	–	15 nM	160000 nM	470 nM	> 20000 nM	540 nM	1700 nM	410 nM	51000 nM	15 nM	2100 nM
O=C(NO)c1ccc2nc(-c3ccc(Oc4ccccc4)cc3)[nH]c2c1 [Example 8, N-hydroxy-2-(4-phenoxyphenyl)-1H-benzimidazole-6-carboxamide]	> 20000 nM	2000 nM	2300 nM	1700 nM	–	–	–	–	–	–	–	–	–	–
COc1ccc2cc(-c3nc4ccc(C(=O)NO)cc4[nH]3)ccc2c1 [Example 10, N-hydroxy-2-(6-methoxynaphthalen-2-yl)-1H-benzimidazole-6-carboxamide]	> 20000 nM	2100 nM	2200 nM	1200 nM	–	–	–	–	–	–	–	–	–	–
O=C(NO)c1ccc2nc(-c3cccc(Br)c3)[nH]c2c1 [Example 21, 2-(3-bromophenyl)-N-hydroxy-1H-benzimidazole-6-carboxamide]	–	–	–	–	12 nM	9300 nM	62 nM	> 20000 nM	7800 nM	7000 nM	4300 nM	1500 nM	12 nM	780 nM
O=C(NO)c1ccc2nc(-c3cccc(C(F)(F)F)c3Cl)[nH]c2c1 [Example 34, 2-[2-chloro-3-(trifluoromethyl)phenyl]-N-hydroxy-1H-benzimidazole-6-carboxamide]	> 20000 nM	3900 nM	10000 nM	12000 nM	–	–	–	–	–	–	–	–	–	–
CC(C)c1ccc(-c2nc3ccc(C(=O)NO)cc3[nH]2)cc1 [Example 50, N-hydroxy-2-[4-(1-methylethyl)phenyl]-1H-benzimidazole-6-carboxamide]	–	–	–	–	14 nM	32000 nM	420 nM	> 20000 nM	580 nM	2000 nM	290 nM	3300 nM	14 nM	3400 nM
O=C(NO)c1ccc2nc(-c3ccc4c(c3)CCO4)[nH]c2c1 [Example 96, 2-(2,3-dihydro-1-benzofuran-5-yl)-N-hydroxy-1H-benzimidazole-6-carboxamide]	–	–	–	–	5.2 nM	58000 nM	220 nM	–	–	–	–	5000 nM	5.2 nM	1300 nM
CC(C)Oc1ccc(-c2nc3ccc(C(=O)NO)cc3[nH]2)cc1 [Example 97, N-hydroxy-2-[4-(1-methylethoxy)phenyl]-1H-benzimidazole-6-carboxamide]	–	–	–	–	12 nM	33000 nM	260 nM	–	–	–	–	5700 nM	12 nM	2400 nM
O=C(NO)c1ccc2nc(-c3cccs3)[nH]c2c1 [Example 98, N-hydroxy-2-thiophen-2-yl-1H-benzimidazole-6-carboxamide]	–	–	–	–	7 nM	24000 nM	290 nM	–	–	–	–	4400 nM	7 nM	1900 nM
CCc1ccc(-c2nc3ccc(C(=O)NO)cc3[nH]2)cc1 [Example 109, 2-(4-ethylphenyl)-N-hydroxy-1H-benzimidazole-6-carboxamide]	–	–	–	–	46 nM	165000 nM	1200 nM	–	–	–	–	6500 nM	46 nM	2200 nM
O=C(NO)c1ccc2nc(-c3ccccc3-c3ccccc3)[nH]c2c1 [Example 119, 2-biphenyl-2-yl-N-hydroxy-1H-benzimidazole-6-carboxamide]	–	–	–	–	14 nM	29000 nM	710 nM	–	–	–	–	4000 nM	14 nM	2800 nM
O=C(NO)c1ccc2nc(-c3ccc(-c4cccc(Cl)c4)cc3)[nH]c2c1 [Example 151, 2-(3′-chlorobiphenyl-4-yl)-N-hydroxy-1H-benzimidazole-6-carboxamide]	> 20000 nM	490 nM	1900 nM	1000 nM	–	–	–	–	–	–	–	–	–	–
CC(C)(C)c1ccc(-c2nc3ccc(C(=O)NO)cc3[nH]2)cc1 [Example 159, 2-(4-tert-butylphenyl)-N-hydroxy-1H-benzimidazole-6-carboxamide]	> 20000 nM	1200 nM	6300 nM	2100 nM	19 nM	–	–	–	–	–	–	–	–	–
CCCCCCCCCc1ccc(-c2nc3ccc(C(=O)NO)cc3[nH]2)cc1 [Example 161, 2-(4-nonylphenyl)-N-hydroxy-1H-benzimidazole-6-carboxamide]	> 20000 nM	640 nM	5500 nM	610 nM	–	–	–	–	–	–	–	–	–	–
O=C(NO)c1ccc2nc(-c3ccc(-c4ccccc4F)cc3)[nH]c2c1 [Example 167, 2-(2′-fluorobiphenyl-4-yl)-N-hydroxy-1H-benzimidazole-6-carboxamide]	> 20000 nM	160 nM	140 nM	–	19 nM	–	–	–	–	–	–	–	–	–
O=C(NO)c1ccc2nc(-c3ccc(-c4cccc(Cl)c4)s3)[nH]c2c1 [Example 177, 2-[5-(3-chlorophenyl)thiophen-2-yl]-N-hydroxy-1H-benzimidazole-6-carboxamide]	> 20000 nM	620 nM	3500 nM	1100 nM	5.1 nM	–	–	–	–	–	–	–	–	–
O=C(NO)c1ccc2nc(-c3ccc(-c4ccccc4)c(F)c3)[nH]c2c1 [Example 180, 2-(2-fluorobiphenyl-4-yl)-N-hydroxy-1H-benzimidazole-6-carboxamide]	> 20000 nM	560 nM	420 nM	–	–	–	–	–	–	–	–	–	–	–
C[C@@H]1CN(Cc2ccc(-c3ccc(-c4nc5ccc(C(=O)NO)cc5[nH]4)cc3)cc2)C[C@H](C)O1 [Example 201, 2-(4′-{cis)-2,6-dimethylmorpholin-4-yl]methyl}biphenyl-4-yl)-N-hydroxy-1H-benzimidazole-6-carboxamide trifluoroacetate]	–	–	–	–	13 nM	–	–	–	–	–	–	–	–	–
CS(=O)(=O)Nc1ccc(-c2ccc(-c3nc4ccc(C(=O)NO)cc4[nH]3)cc2)cc1 [Example 204, N-hydroxy-2-{4′-[(methylsulfonyl)amino]biphenyl-4-yl}-1H-benzimidazole-6-carboxamide]	–	–	–	–	7.2 nM	–	–	–	–	–	–	–	–	–
CN1CCN(Cc2ccc(-c3nc4ccc(C(=O)NO)cc4[nH]3)cc2)CC1 [Example 207, N-hydroxy-2-{4-[(4-methylpiperazin-1-yl)methyl]phenyl}-1H-benzimidazole-6-carboxamide]	–	–	–	–	7 nM	7800 nM	1800 nM	–	–	–	–	700 nM	7 nM	250 nM
COc1c(C)cc(-c2nc3cc(C(=O)NO)ccc3n2C)cc1C [Example 228, N-hydroxy-2-(4-methoxy-3,5-dimethylphenyl)-1-methyl-1H-benzimidazole-5-carboxamide]	–	–	–	–	3.5 nM	20000 nM	100 nM	–	–	–	–	2000 nM	3.5 nM	216 nM
